Reference: publication PMC6429159, “Evolution and Biological Evaluation of Matrinic Derivatives with Amantadine Fragments As New Anti-Influenza Virus Agents” (Molecules, 2019)
Counter-ions that a name gives are not always drawn. Like-named read-outs stand apart in the source and are kept apart here.

Legend:
MDCK cells [1] = conditions: lead 1, value of previous study; cited from earlier work
[2] = test system: influenza virus A/Fort Monmouth/1/1947 (H1N1); test: organism not typed; type: cell-based; conditions: MDCK cells, CPE
[3] = Stability assay in whole blood; type: in vitro ADME, SD rats; conditions: 37 °C; for stability in whole blood (in words): in vitro
Protocol: The results hinted that 9f owned a good PK stability profile in blood, and it was chosen for the next investigation.
The fresh bloods were collected on the day of experiment from SD rats, and pre-warmed in a water bath at 37 °C. A concentration of 10 mM tested compound or enalapril stock solutions were prepared in DMSO, and then diluted with 45% MeOH/H2O to achieve […] dosing solutions. […] At the end of incubation, for each sample, […] water and […] of stop solution (200 ng·mL^−1 tolbutamide plus 20 ng·mL^−1 buspirone in acetonitrile) were immediately added to precipitate the protein, and centrifuged at 4000 rpm for 20 min. An aliquot of supernatant ([…]) was then extracted, mixed with […] H2O, and then shaken at 800 rpm for about 10 min before being submitted for a liquid chromatography-tandem mass […] (LC-MS/MS) analysis. The experiment was repeated twice.
Figure 3 The stability assessments of key compounds 9f and 9j in whole blood. […]

IAV M2 = type: cell-based, Influenza A virus
[4] = test system: influenza virus A/hanfang/359/95 (H3N2); test: organism not typed; type: cell-based; conditions: 50% virus-inhibitory concentration after 40 hr at 37 °C, MDCK cells; – = no anti-H3N2 activity at the maximum non-toxic concentration
MDCK cells [5] = test: Cytotoxicity assay; type: cell-based; conditions: 50% cytotoxic concentration, 48 hr
Protocol: A three-fold dilution compound was added to cell monolayer, and the cells continued to be cultivated for 48 hr, and then the CPE was recorded. The TC50 value of each compound was calculated by the methods of Reed & Muench.

Kunming mice = conditions: for weight loss and behaviour: oral single dose 125, 250, 500 mg·kg^–1, seven days, compared to control; for median lethal dose (LD50): oral single dose, Kunming mice, monitored seven days
Protocol: The acute toxicity tests of the two key compounds 9f and 9j were performed in Kunming mice. Each compound was given orally in a single-dosing experiment at 125, 250, and 500 mg·kg^–1, respectively. Then, the mice were closely monitored for seven days.
Female Kunming mice with weights of 20.0 (±1.0 g) were fed with regular rodent chow, and housed in an air-conditioned room. The mice were randomly divided into different groups with 10 mice each. Each compound was given orally in a single-dosing experiment at 125, 250, or 500 mg·kg^−1, respectively. The mice were closely monitored for seven days. Body weight, as well as survival, was monitored.

[6] = test system: H3N2 virus non-structural protein 1 (NS1); test: Anti-H3N2 activity at the protein level, NS1 Western blot; type: cell-based, Influenza A virus; conditions: 40 μM, MDCK cells, MOI 0.003, 24 hr

Row | SMILES | TC50 (MDCK cells [1]) | IC50 [2] | remaining rate of protype in whole blood ([3]; 60 min) | remaining rate of protype in whole blood ([3]; 120 min) | stability in whole blood (in words) [3] | M2 level (IAV M2) | IC50 [4] | TC50 (MDCK cells [5]) | weight loss and behaviour (Kunming mice) | median lethal dose (LD50) (Kunming mice) | H3N2 virus NS1 level [6] | remaining rate of protype in whole blood ([3]; 30 min)
1 | CCCCC1C2CCCN3CCCC(CN1Cc1ccc(C(=O)O)cc1)C23 (centres unmarked) [Compound 1, 12N-p-carboxybenzyl matrinic butane] | >540.5 µM |  |  |  |  |  |  |  |  |  |  | 
2 | O=C(OCCCC[C@@H]1[C@H]2CCCN3CCC[C@@H](CN1S(=O)(=O)c1cccc(C(F)(F)F)c1)[C@@H]23)C12CC3CC(CC(Br)(C3)C1)C2 [Compound 9f, 12N-m-Trifluoromethlybenzenesulfonylmatrinicbutyl-3’-bromoadamantane-1’-carboxylate hydrochloride] |  | 23.4 ± 1.5 µM | 100% | 97.9% | high stability profile | significantly reduce | 7.2 ± 1.1 µM | 75.7 ± 14.2 µM | neither significant weight loss nor behavioral abnormality | higher than 500 mg·kg^–1 | significantly reduce | 
3 | O=C(CC1CC2CCC1C2)OCCCC[C@@H]1[C@H]2CCCN3CCC[C@@H](CN1S(=O)(=O)c1cccc(C(F)(F)F)c1)[C@@H]23 (some centres unmarked) [Compound 9j, 12N-m-Trifluoromethlybenzenesulfonyl matrinic butyl-2’-norbornane acetate hydrochloride] |  | 22.6 ± 1.3 µM |  | 1.3% | poor stability |  | 10.2 ± 1.8 µM | 110.3 ± 18.5 µM | neither significant weight loss nor behavioral abnormality | higher than 500 mg·kg^–1 | significantly reduce | 47.7%
